Here are results for 22 molecules from patent US5747535A, “Selective thrombin inhibitors” (priority 1995, dated 1998).

Read-outs that look alike come from different tables or passages of the source.

By Ki is commonly meant a dissociation constant, usually derived from enzyme kinetics or from competition with a known ligand. One may read the Km as the concentration of substrate that gives half-maximal velocity.

For series [1], the target named is T1, bovine thrombin (Bos taurus, UniProt P00735). The following applies: for Ki: read-out: Inhibitory activity for thrombin, Ki, bovine thrombin, pH 7.8, initial velocity, reaction started with enzyme.
Text: (§1) The thrombin inhibitory effect of the compound of formula (I) according to the present invention can be identified by determination of a dissociation constant Ki represented by the following equation according to the known method described in literature [see, Methods in enzymology V. 80,p341-361;Biochemistry 27,p2144-2151 (1988)].
(§2) The dissociation constant Ki denotes the degree of dissociation of the enzyme-thrombin inhibitor complex. […] Such dissociation constant can be determined by reacting thrombin with a certain substrate which develops a color when it is hydrolyzed by the action of thrombin, and then measuring the degree of color development as a function of time by means of spectrophotometry.
(§3) Chromozym TH is hydrolyzed by thrombin to produce yellow para-nitroaniline. Accordingly, the amount of yellow para-nitroaniline thus produced can be measured as the change of absorbance in the course of time to determine the thrombin inhibitory activity of the compound according to the present invention. That is, the enzyme activity can be determined from the rate of change in absorbance and then can be directly connected with the ability of the thrombin inhibitor to inhibit the enzyme activity (see, Methods in Enzymology, V. 80,p341-361,Biochemistry 27, p2144-2151, 1988).
(§4) The ability of the compound according to the present invention to inhibit the thrombin activity was determined as described in the following.
(§5) 1160 μl of 0.1M tris buffered solution (pH 7.8) containing 150 mM NaCl and 0.1% PEG 8000 (polyethylene glycol, molecular weight about 8,000) was added to a 1.5 ml cuvette. Chromozym TH was dissolved in dimethylsulfoxide(DMSO) in the concentration of 10mM and the resulting solution was diluted with the said tris buffered solution to the concentration of 0.1 mM, which was then used as the substrate solution. 225 μl of 0.1 mM substrate solution thus prepared was added to the cuvette. The inhibitor solution was prepared by dissolving the thrombin inhibitor compound according to the present invention in dimethylsulfoxide in the concentration of 10 mg/ml and then diluting the resulting solution with the said tris buffered solution to the concentration of 0.1 mg/ml, 0.01 mg/ml, 0.001 mg/ml and 0.0001 mg/ml. The resulting inhibitor solution was taken in an amount corresponding to 0 to 10 μg as the inhibitor and then diluted with tris buffered solution to make the total volume of 100 μl which was added to the cuvette.
(§6) 15 μl of bovine thrombin solution dissolved in above tris buffered solution in the concentration of 0.1 mg/ml was added to the cuvette to initiate the enzyme hydrolysis reaction. The amount of para-nitroaniline produced for 2 minutes from the moment the enzyme is added was monitored by measuring the absorbance at 381 nm. The continuous spectrum of absorbance to reaction time was depicted. The same experiments were conducted for various concentration of the inhibitor to obtain the continuous spectrum.
(§7) In each spectrum, the initial velocity Vi was obtained from the slope within initial 30 seconds of the reaction time and then a graph for the reciprocal value of initial velocity(1/Vi) to the inhibitor concentration was depicted. From the graph, the primary equation satisfying the points depicted thereon was obtained and then the value Ki was calculated from the x intercept of the primary equation using the enzyme reaction equation.
(§8) The velocity constant Ks was obtained using the same solution in the same concentration as in determination of the value Ki but using the following experimental procedure.
The target in series [2] is T2, trypsin (Bos taurus, UniProt P00760).
T2 sequence (P00760 24-246): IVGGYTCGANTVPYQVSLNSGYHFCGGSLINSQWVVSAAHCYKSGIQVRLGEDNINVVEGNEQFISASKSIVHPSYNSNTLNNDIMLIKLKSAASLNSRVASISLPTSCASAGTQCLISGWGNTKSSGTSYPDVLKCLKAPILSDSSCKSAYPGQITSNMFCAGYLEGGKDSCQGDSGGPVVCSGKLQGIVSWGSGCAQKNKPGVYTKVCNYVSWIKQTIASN
Kind of series: biochemical. The series is classed as biochemical. To be noted: 20 μM substrate; read-out: Inhibitory activity for trypsin, Ki. The protocol: To identify the selectivity for thrombin over trypsin of the compound of the present invention, the inhibitory activity for trypsin of the compound of formula (I) is measured as Ki value according to the same method as the above method for determination of thrombin inhibitory activity, and then the ratio of the activity for trypsin to the activity for thrombin is calculated. In this case, the procedure for determination of inhibitory activity for trypsin is substantially identical to that for thrombin, except that N-benzoyl-Val-Gly-Arg para-nitroanilide hydrochloride is used as the substrate.
As the substrate 20μM solution of N-benzoyl-Val-Gly-Arg-p-nitroanilide hydrochloride was used, and the inhibitor was used in various concnetrations within the range of […]. In addition, trypsin was dissolved in 0.1N HCl, adjusted to the concentration of 45 μg/ml with the said tris buffered solution just before the experiment, and then used in an amount of 40μl. As in the experiment for thrombin, a total volume of the reaction solution was 1.5 ml and the remaining procedure was conducted in the same manner.

Series [3] concerns the target T1, bovine thrombin. Kind of series: biochemical.
Text: as §1, §2, §3, §4, §5, §6, §7, §8
For series [4] the following is noted: human being; Osamu et al. 1986; cited from earlier work.
The conditions of series [5]: literature, cited from earlier work.
Series [6] deals with thrombin over trypsin. The following applies: cited from earlier work.
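Throughout, for Km: bovine thrombin cleaving the chromogenic substrate Chromozym TH, with para-nitroaniline release tracked as absorbance change over time to give initial rates, in Tris buffer at pH 7.8.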

For the molecule `CCCCN(C(=O)[C@H](Cc1ccc(C(=N)NN)cc1)NS(=O)(=O)c1ccc2ccccc2c1)C1CCCC1` [Example 5, (S)-N-cyclopentyl-N-butyl-3-(4-amidrazonophenyl)-2-(2-naphthylsulfonylamino)propionamide], the Ki in series [1] was found to be 231 nM.

As to `N=C(NN)c1ccc(C[C@H](NS(=O)(=O)c2ccc3ccccc3c2)C(=O)N(O)C2CCCC2)cc1` [Example 10, (S)-N-cyclopentyl-N-hydroxy-3-(4-amidrazonophenyl)-2-(2-naphthylsulfonylamino)propionamide], the inhibition constant (Ki) in series [1] was determined as 367 nM.

With `CS(=O)(=O)N1CCN(C(=O)[C@H](Cc2ccc(C(=N)NN)cc2)NS(=O)(=O)c2ccc3ccccc3c2)CC1` [Example 50, (S)-naphthalene-2-sulfonic acid [1-(4-amidrazono)benzyl-2-(4-methylsulfonyl-piperazinyl)-2-oxoethyl]amide], the figures for the Ki in series [2] and in series [3] were 5790 nM and 11 nM, respectively.

With `CC1CNc2c(cccc2S(=O)(=O)N[C@@H](CCCNC(=N)N)C(=O)N2CC[C@@H](C)C[C@@H]2C(=O)O)C1` (stereo partly shown) [Argatroban], the elimination half-life in series [4] was 40 min.

Turning to `CN(C(=O)[C@H](Cc1ccc(C(=N)NN)cc1)NC(=O)COc1cccc2ccccc12)C1CCCC1` [Example 23, (S)-3-[4-(amidrazono)-phenyl]-N-cyclopentyl-N-methyl-2-[2-(naphthalen-1-yl-oxy)acetylamino]-propionamide], the values for the Ki in series [2] and in series [3] were 21700 nM and 2590 nM, respectively.

As to `CN(C)c1cccc2c(S(=O)(=O)N[C@@H](Cc3ccc(C(=N)NN)cc3)C(=O)N(C)C3CCCC3)cccc12` [Example 18, (S)-3-[4-(amidrazono)-phenyl]-N-cyclopentyl-N-methyl-2-(5-dimethylamino-naphthalene-1-sulfonylamino)-propionamide], the inhibition constant (Ki) is 3980 nM in series [2] and 11 nM in series [3].

For the molecule `N=C(N)N1CCC[C@@H](CNC(=O)C[C@H](NS(=O)(=O)c2ccc3ccccc3c2)C(=O)N(CC(=O)O)C2CC2)C1` [Ro 46-6240], in series [5] (oral), the “possibility for oral administration” value is on record as “does not show any possibility for oral administration”. Moreover, the “half-life in blood” value in series [5] is recorded as “short half-life in blood”. In addition, the “selectivity for thrombin over trypsin” value in series [6] (literature (J. Med. Chem. 1994, 37, 3889-3901)) is “improved selectivity for thrombin over trypsin”.

For the molecule `CN(C(=O)[C@H](Cc1ccc(C(=N)NN)cc1)NS(=O)(=O)c1ccc2ccccc2c1)C1CCCCC1` [Example 15, (S)-N-cyclohexyl-N-methyl-3-(4-amidrazonophenyl)-2-(2-naphthylsulfonylamino)propionamide], in series [1], the Ki is 152 nM.

Consider `COc1cc2ccc(S(=O)(=O)N[C@@H](Cc3ccc(C(=N)NN)cc3)C(=O)N(C)C3CCCC3)cc2cc1OC` [Example 20, (S)-3-[4-(amidrazono)-phenyl]-N-cyclopentyl-N-methyl-2-(6,7-dimethoxy-naphthalene-2-sulfonylamino)-propionamide], for which the inhibition constant (Ki) stood at 2300 nM in series [2] and 21.7 nM in series [3].

Regarding `N=C(N)c1ccc(CC(NC(=O)CNS(=O)(=O)c2ccc3ccccc3c2)C(=O)N2CCCCC2)cc1` (stereo not shown) [NAPAP], the “thrombin inhibitory activity relative to activity for trypsin (selectivity)” value in series [6] (literature) is recorded as 50 times.

Turning to `COc1cccc2c(S(=O)(=O)N[C@@H](Cc3ccc(C(=N)NN)cc3)C(=O)N(C)C3CCCC3)cccc12` [Example 19, (S)-3-[4-(amidrazono)-phenyl]-N-cyclopentyl-N-methyl-2-(5-methoxy-naphthalene-1-sulfonylamino)-propionamide], the Ki was 5250 nM in series [2] and 5.3 nM in series [3].

Regarding `N=C(NN)c1ccc(C[C@H](NS(=O)(=O)c2ccc3ccccc3c2)C(=O)N(CCOCc2ccccc2)C2CCCC2)cc1` [Example 4, (S)-N-cyclopentyl-N-(2-benzyloxyethyl)-3-(4-amidrazonophenyl)-2-(2-naphthylsulfonylamino)propionamide], in series [3], the affinity corresponds to a Ki of 345 nM.

On to `CNC(=N)c1ccc(C[C@H](NS(=O)(=O)c2ccc3ccccc3c2)C(=O)N(C)C2CCCC2)cc1` [Example 7, (S)-N-cyclopentyl-N-methyl-3-[4-(methylamidino)phenyl]-2-(2-naphthylsulfonylamino)propionamide], for which the figures for the inhibitory constant (Ki) in series [2] and in series [3] were 363000 nM and 13.8 nM, respectively.

For the molecule `CCN(C(=O)[C@H](Cc1ccc(C(=N)NN)cc1)NS(=O)(=O)c1ccc2ccccc2c1)C1CCCC1` [Example 6, (S)-N-cyclopentyl-N-ethyl-3-(4-amidrazonophenyl)-2-(2-naphthylsulfonylamino)propionamide], the affinity in series [3], expressed as Ki, was 4.35 nM.

Consider `CN(C(=O)[C@H](Cc1ccc(C(=N)NN)cc1)NS(=O)(=O)c1ccc2ccccc2c1)C1CC1` [Example 16, (S)-N-cyclopropyl-N-methyl-3-(4-amidrazonophenyl)-2-(2-naphthylsulfonylamino)propionamide], for which the inhibition constant (Ki) in series [1] came out at 247 nM.

With `CCOC(=O)C1CCCC1N(C)C(=O)[C@H](Cc1ccc(C(=N)NN)cc1)NS(=O)(=O)c1ccc2ccccc2c1` (stereo partly drawn) [Example 45, 2-{[3-(4-amidrazono-phenyl)-(S)-2-(naphthalene-2-sulfonylamino)-propionyl]-methylamino}-cyclopentane carboxylic acid ethyl ester], in series [3], affinity was put at a Ki of 346 nM.

For `CC(=O)N1CCN(C(=O)[C@H](Cc2ccc(C(=N)NN)cc2)NS(=O)(=O)c2ccc3ccccc3c2)CC1` [Example 56, (S)-naphthalene-2-sulfonic acid [2-(4-acetyl-piperazinyl)-1-(4-amidrazono)benzyl-2-oxoethyl]amide], in series [3], the Ki was determined as 280 nM.

For the molecule `CCCN(C(=O)[C@H](Cc1ccc(C(=N)NN)cc1)NS(=O)(=O)c1ccc2ccccc2c1)C1CCCC1` [Example 3, (S)-N-cyclopentyl-N-propyl-3-(4-amidrazonophenyl)-2-(2-naphthylsulfonylamino)propionamide], the inhibition constant Ki in series [1] stood at 93 nM.

“Gly-Pro-Arg-4-nitroanilide acetate [Chromozym TH, reference compound]”: the Michaelis-Menten constant (Km) in series [1] (substrate of thrombin, constant enzyme concentration) was determined as 8.3 µM.

As for `CCCCN(C)C(=O)[C@H](Cc1ccc(C(=N)NN)cc1)NS(=O)(=O)c1ccc2ccccc2c1` [Example 2, (S)-N-butyl-N-methyl-3-(4-amidrazonophenyl)-2-(2-naphthylsulfonylamino)propionamide], in series [1], the Ki came out at 41 nM.

For the molecule `CNC(=N)c1ccc(C[C@H](NS(=O)(=O)c2cccc3c(N(C)C)cccc23)C(=O)N(C)C2CCCC2)cc1` [Example 21, (S)-3-[4-(methylamidino)-phenyl]-N-cyclopentyl-N-methyl-2-(5-dimethylamino-naphthalene-1-sulfonylamino)-propionamide], the Ki in series [2] was > 100000 nM; in series [3], 25 nM.

Consider `COC(=O)CCN(C)C(=O)[C@H](Cc1ccc(C(=N)NN)cc1)NS(=O)(=O)c1ccc2ccccc2c1` [Example 33, 3-{[3-(4-amidrazono-phenyl)-(S)-2-(naphthalene-2-sulfonylamino)-propionyl]-methylamino}-propionic acid methyl ester], for which, in series [3], the affinity, expressed as Ki, was 35 nM.
